Structures are written as SMILES.

Data set [1] concerns the target human mGluR5 (Homo sapiens, UniProt P41594). Description: Cell-based functional Ca2+ mobilization assay (FDSS), potentiation of glutamate EC20 response. The settings on record: H10H cell-line (HEK, recombinant human mGluR5); for Emax: glutamate EC20, maximum average response at a single concentration, percent of maximal glutamate response; for EC50: positive allosteric modulation in presence of glutamate EC20, concentration in mol/L. From the text: Human mGluR5a cDNA in pCMV6-XL6 mammalian expression plasmid was purchased from OriGene Technologies, Inc. (catalogue number SC326357) and subcloned into pcDNA3.1(−). Human embryonic kidney (HEK) 293A cells were then transfected with human mGluR5a pcDNA3.1(−) using LipofectAmine2000 (Invitrogen) and monoclones were selected and tested for functional response using a Ca^2+ mobilization assay. Monoclones were named for the species (“H” for human) plus the location on the plate (e.g. “10H”).
HEK cells transfected with the human mGluR5a receptor (H10H or H12H cell line) were plated at 15,000 cells/well in clear-bottomed poly-D-lysine-coated assay plates (BD Falcon) in glutamate-glutamine-free growth medium and incubated overnight at 37° C. and 5% CO2. Cell-lines used were either the H10H or H12H cell-lines expressing the human mGluR5 receptor. The following day, the growth medium was removed and the cells were washed with assay buffer containing 1× Hank's balanced salt solution (Invitrogen, Carlsbad, Calif.), 20 mM HEPES, 2.5 mM probenecid, pH 7.4 and left with 20 μL of this reagent. Following this step, the cells were loaded with calcium indicator dye, fluo-4 AM, to a final concentration of 2 μM and incubated for 40-45 min at 37° C. The dye solution was removed and replaced with assay buffer. Cell plates were held for 10-15 min at room temperature and were then loaded into the Functional Drug Screening System 6000 (FDSS 6000, Hamamatsu, Japan).
After establishment of a fluorescence baseline for about 3 seconds, the compounds of the present invention were added to the cells, and the response in cells was measured. 2.3 minutes later an EC20 concentration of the mGluR5 receptor agonist glutamate was added to the cells, and the response of the cells was measured for about 1.7 minutes. All test compounds were dissolved and diluted to a concentration of 10 mM in 100% DMSO and then serially diluted into assay buffer for a 2× stock solution in 0.6% DMSO; stock compounds were then added to the assay for a final DMSO concentration of 0.3% after the first addition to the assay well. Calcium fluorescence measures were recorded as fold over basal fluorescence; raw data was then normalized to the maximal response to glutamate. Potentiation of the agonist response of the mGluR5 receptor in the present invention was observed as an increase in response to submaximal concentrations of glutamate in the presence of compound compared to the response to glutamate in the absence of compound.
The concentration-response curves of compounds of the present invention, obtained in the presence of EC20 of mGluR5 receptor agonist glutamate to determine positive allosteric modulation, were generated using Microsoft Excel with IDBS XLFit add-ins. The raw data file containing all time points was used as the data source in the analysis template. This was saved by the FDSS as a tab-delimited text file. Data were normalized using a static ratio function (F/F0) for each measurement of the total 350 values per well divided by each well's initial value. Data was then reduced as to peak amplitudes (Max-Initial Min) using a time range that starts approximately 1 second after the glutamate EC20 addition and continues for approximately 40 seconds. This is sufficient time to capture the peak amplitude of the cellular Calcium response. Individual amplitudes were expressed as % EMax by multiplying each amplitude by 100 and then dividing the product by the mean of the amplitudes derived from the glutamate ECMax-treated wells. pEC50 values for test compounds were generated by fitting the normalized values versus the log of the test compound concentration (in mol/L) using a 4 parameter logistic equation where none of the parameters were fixed. Each of the three values collected at each concentration of test compound were weighted evenly. Individual values falling outside the 95% prediction limits of the curve fit were automatically excluded from the fit. […]

Sequence of human mGluR5 (P41594 21-1180 isoform P41594-2 limits assumed): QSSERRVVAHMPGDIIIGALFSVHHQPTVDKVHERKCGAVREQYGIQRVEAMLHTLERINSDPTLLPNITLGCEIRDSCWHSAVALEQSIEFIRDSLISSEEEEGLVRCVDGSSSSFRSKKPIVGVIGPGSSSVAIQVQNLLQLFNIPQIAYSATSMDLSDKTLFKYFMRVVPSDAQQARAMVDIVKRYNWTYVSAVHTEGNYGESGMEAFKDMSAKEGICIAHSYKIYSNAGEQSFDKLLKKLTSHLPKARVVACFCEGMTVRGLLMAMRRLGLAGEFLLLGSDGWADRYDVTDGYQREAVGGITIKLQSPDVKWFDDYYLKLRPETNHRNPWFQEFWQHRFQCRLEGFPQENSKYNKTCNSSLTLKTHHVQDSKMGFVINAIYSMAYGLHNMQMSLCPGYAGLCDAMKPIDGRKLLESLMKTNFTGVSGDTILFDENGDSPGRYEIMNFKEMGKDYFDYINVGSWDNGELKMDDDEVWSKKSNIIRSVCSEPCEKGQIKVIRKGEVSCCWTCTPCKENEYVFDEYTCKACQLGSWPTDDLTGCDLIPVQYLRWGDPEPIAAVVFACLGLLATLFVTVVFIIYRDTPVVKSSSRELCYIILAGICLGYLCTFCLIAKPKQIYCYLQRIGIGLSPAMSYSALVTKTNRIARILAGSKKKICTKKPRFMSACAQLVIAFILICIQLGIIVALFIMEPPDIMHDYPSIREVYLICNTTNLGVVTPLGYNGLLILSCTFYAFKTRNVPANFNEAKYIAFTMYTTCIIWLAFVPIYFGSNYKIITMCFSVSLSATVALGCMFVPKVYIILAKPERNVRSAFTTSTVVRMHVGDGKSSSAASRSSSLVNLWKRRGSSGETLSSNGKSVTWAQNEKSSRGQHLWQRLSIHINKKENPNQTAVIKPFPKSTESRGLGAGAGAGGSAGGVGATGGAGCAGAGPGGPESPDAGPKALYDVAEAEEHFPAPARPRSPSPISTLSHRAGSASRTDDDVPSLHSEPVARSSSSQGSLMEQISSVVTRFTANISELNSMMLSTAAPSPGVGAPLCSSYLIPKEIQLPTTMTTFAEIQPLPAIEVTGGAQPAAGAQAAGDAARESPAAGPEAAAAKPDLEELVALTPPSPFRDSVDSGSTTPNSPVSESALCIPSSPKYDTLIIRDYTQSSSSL

`O=C1c2cc(COc3ccccc3)nn2CCN1Cc1ccccc1F` [Example B19] displayed a melting point of 110.6 °C. Besides, in data set [1], the maximal response (Emax) was 69.5% and the EC50 was 43.7 nM.

`O=C1c2cc(COc3ccccc3)nn2CCN1Cc1cccc(F)c1` [Example B20] showed a melting point of 95 °C. Also, in data set [1], the Emax amounted to 65% and the EC50 is 47.9 nM.

As to `O=C1c2cc(COc3ccccc3)nn2CCN1Cc1ccc(F)c(F)c1` [Example B21], the melting point stood at 133.2 °C. Besides, in data set [1], the Emax was found to be 68% and the concentration for a half-maximal effect (EC50) was 77.6 nM.

The compound `O=C1c2cc(COc3ccccc3)nn2CCN1Cc1ccc(F)cc1F` [Example B22] registered a melting point of 129.8 °C. In data set [1], the maximum response (Emax) was 69% and the half-maximal effective concentration (EC50) was 61.7 nM.

On to `O=C1c2cc(COc3ccccc3)nn2CCN1Cc1cccc(F)c1F` [Example B23], for which the melting point came out at 122.8 °C. In data set [1], the Emax is 72.5% and the EC50 was 31.6 nM.

For `O=C1c2cc(COc3ccccc3)nn2CCN1Cc1cc(F)ccc1F` [Example B24], the melting point is 113.6 °C. Also, in data set [1], the maximal effect (Emax) is 71% and the concentration for a half-maximal effect (EC50) was 120 nM.

The compound `COc1ccc(CN2CCn3nc(COc4cccc(C)n4)cc3C2=O)cc1` [Example B29] came in with a melting point of 91.2 °C. For the same compound, in data set [1], the Emax worked out at 37% and the EC50 was more than 10000 nM.

Turning to `COc1ccc(CN2CCn3nc(COc4cc(C)ccn4)cc3C2=O)cc1` [Example B30], the melting point is more than 300 °C. Also, in data set [1], the maximum response (Emax) turned out to be 61% and the EC50 was more than 10000 nM.

As for `COc1ccc(CN2CCn3nc(COc4ccnc(C)c4)cc3C2=O)cc1` [Example B33], the melting point amounted to 117.1 °C. In data set [1], the maximal response (Emax) is 30% and the EC50 was more than 10000 nM.

As to `COc1ccc(CN2CCn3nc(COc4cc(C)nc(C)c4)cc3C2=O)cc1` [Example B35], the melting point stood at 164.8 °C. Besides, in data set [1], the Emax was found to be 17% and the concentration giving a half-maximal response (EC50) is more than 31600 nM.

Consider `COc1cccc(CN2CCn3nc(COc4ccccc4)cc3C2=O)c1` [Example B36], for which the melting point amounted to 82.5 °C. Besides, in data set [1], the Emax came out at 65% and the EC50 is 107 nM.

The compound `CC1(C)CN(Cc2ccccc2)C(=O)c2cc(COc3ccccc3)nn21` [Example B45] had a melting point of 112.6 °C. In data set [1], the Emax is 66% and the 50% effective concentration (EC50) was 178 nM.

As for `O=C1c2cc(COc3ccccc3)nn2CCN1Cc1ccccc1Cl` [Example B46], the melting point stood at 111.2 °C. Besides, in data set [1], the Emax was found to be 75% and the concentration giving a half-maximal response (EC50) is 26.3 nM.

Turning to `O=C1c2cc(COc3ccccc3)nn2CCN1Cc1cccc(Cl)c1` [Example B47], the melting point stood at 218 °C. In data set [1], the Emax was 76% and the EC50 is 55 nM.

Regarding `O=C1c2cc(COc3ccccc3)nn2CCN1Cc1ccc(Cl)cc1` [Example B48], the melting point is 169 °C. Also, in data set [1], the maximal response (Emax) came out at 65% and the EC50 is 155 nM.

The compound `Cc1ccnc(OCc2cc3n(n2)CCN(Cc2ccccc2)C3=O)c1` [Example B62] returned a melting point of 75.4 °C. Also, in data set [1], the Emax was 39% and the EC50 is 759 nM.

The compound `Cc1ccccc1CN1CCn2nc(COc3ccccc3)cc2C1=O` [Example B63] had a melting point of 189.6 °C. Besides, in data set [1], the maximal effect (Emax) came to 70% and the EC50 was 33.9 nM.

The compound `Cc1cccc(CN2CCn3nc(COc4ccccc4)cc3C2=O)c1` [Example B64] yielded a melting point of 95.3 °C. Besides, in data set [1], the Emax was 61% and the EC50 was 47.9 nM.

Regarding `Cc1ccc(CN2CCn3nc(COc4ccccc4)cc3C2=O)cc1` [Example B65], the melting point was 164.9 °C. Besides, in data set [1], the Emax worked out at 75% and the EC50 was 145 nM.

Compound `COc1cc(CN2CCn3nc(COc4ccccc4)cc3C2=O)ccc1F` [Example B66] returned a melting point of 132.1 °C. For the same compound, in data set [1], the maximal effect (Emax) is 64% and the half-maximal effective concentration (EC50) is 204 nM.

Take `COc1cccc(F)c1CN1CCn2nc(COc3ccccc3)cc2C1=O` [Example B67]: the melting point was 87.6 °C. Further, in data set [1], the maximal response (Emax) was found to be 68% and the EC50 was 195 nM.

As to `COc1c(Cl)cccc1CN1CCn2nc(COc3ccccc3)cc2C1=O` [Example B68], the melting point was determined as 116 °C. Also, in data set [1], the Emax was found to be 65.5% and the EC50 was 17.8 nM.

The compound `O=C1c2cc(COc3ccccc3F)nn2CCN1Cc1ccccc1` [Example B69] returned a melting point of 104.2 °C. For the same compound, in data set [1], the Emax is 69% and the EC50 is 209 nM.

`COc1cncc(CN2CCn3nc(COc4ccccc4)cc3C2=O)n1` [Example B71] yielded a melting point of 96 °C. In data set [1], the Emax was 73% and the 50% effective concentration (EC50) is 525 nM.

On to `N#Cc1cccc(CN2CCn3nc(COc4ccccc4)cc3C2=O)c1` [Example B72], for which the melting point came to 117.4 °C. Also, in data set [1], the Emax came to 81% and the EC50 is 229 nM.

`CN(C)c1cccc(CN2CCn3nc(COc4ccccc4)cc3C2=O)n1` [Example B74] had a melting point of 71.8 °C. Moreover, in data set [1], the maximum response (Emax) was 69% and the EC50 is 95.5 nM.

`COc1cccnc1CN1CCn2nc(COc3ccccc3)cc2C1=O` [Example B75] yielded a melting point of 132.4 °C. In addition, in data set [1], the Emax was determined as 71% and the EC50 was 1150 nM.

Regarding `Cc1cncc(CN2CCn3nc(COc4ccccc4)cc3C2=O)n1` [Example B77], the melting point was found to be 120.4 °C. Besides, in data set [1], the Emax came to 66% and the 50% effective concentration (EC50) was 2290 nM.

Compound `Cc1nc(CN2CCn3nc(COc4ccccc4)cc3C2=O)ccc1F` [Example B78] gave a melting point of 114.2 °C. Moreover, in data set [1], the maximum response (Emax) is 70% and the 50% effective concentration (EC50) was 295 nM.

With `Cc1cc(CN2CCn3nc(COc4ccccc4)cc3C2=O)ncc1F` [Example B82], the melting point worked out at 129.8 °C. For the same compound, in data set [1], the Emax came to 75.5% and the EC50 was 355 nM.

Compound `O=C1c2cc(COc3ccccc3)nn2CCN1Cc1ncccc1F` [Example B83] came in with a melting point of 117.2 °C. Besides, in data set [1], the maximum response (Emax) was found to be 77% and the EC50 was 417 nM.

Consider `Cc1nccc(CN2CCn3nc(COc4ccccc4)cc3C2=O)n1` [Example B84], for which the melting point is more than 300 °C. Also, in data set [1], the maximal response (Emax) was 70% and the 50% effective concentration (EC50) was 1740 nM.

The compound `Cc1cccc(CN2CCn3nc(COc4ccc(F)cc4)cc3C2=O)n1` [Example B85] gave a melting point of 147.4 °C. Also, in data set [1], the maximal effect (Emax) turned out to be 69.5% and the EC50 is 447 nM.

`Cc1cccc(CN2C(=O)c3cc(COc4ccccc4)nn3C[C@H]2C)n1` [Example B86] displayed a melting point of 107.6 °C. For the same compound, in data set [1], the Emax worked out at 71.5% and the EC50 is 302 nM.

Consider `C[C@@H]1Cn2nc(COc3ccccc3)cc2C(=O)N1Cc1ncccc1Cl` [Example B87], for which the melting point came out at 166.4 °C. For the same compound, in data set [1], the maximal effect (Emax) stood at 80% and the EC50 was 275 nM.

`O=C1c2cc(COc3ccc(F)cc3)nn2CCN1Cc1ncccc1Cl` [Example B88] had a melting point of 268.8 °C. Also, in data set [1], the Emax stood at 71% and the concentration for a half-maximal effect (EC50) was 93.3 nM.
